According to patent US9925189B2, “Heterocyclic receptor agonists for the treatment of diabetes and metabolic disorders” (CymaBay Therapeutics, Inc., priority 2006, dated 2018):

Each compound was assayed against T1, IC-GPCR2 (Homo sapiens, UniProt Q8TDV5, S309L) (assay: Stimulation of cAMP in CHO cells stably expressing IC-GPCR2 (HTRF cAMP assay)). Conditions: 0.5 h, 30 minutes, IC-GPCR2 stably expressing CHO cells, read-out: Activity at 10 uM (% change in FRET signal from DMSO control).
T1 construct: expressed in transfected cells
T1 sequence (Q8TDV5 1-335 S309L): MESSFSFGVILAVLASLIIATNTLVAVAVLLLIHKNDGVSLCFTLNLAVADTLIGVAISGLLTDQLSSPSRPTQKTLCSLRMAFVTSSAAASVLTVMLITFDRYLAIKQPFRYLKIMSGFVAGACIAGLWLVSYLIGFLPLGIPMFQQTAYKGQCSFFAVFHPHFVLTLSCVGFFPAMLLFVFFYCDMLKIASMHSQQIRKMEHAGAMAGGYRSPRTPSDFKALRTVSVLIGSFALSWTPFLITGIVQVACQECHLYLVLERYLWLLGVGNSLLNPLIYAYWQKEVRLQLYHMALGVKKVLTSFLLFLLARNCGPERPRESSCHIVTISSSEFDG
Type: cell-based
Outline: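 CHO cells stably expressing IC-GPCR2, plated at 17500 cells/well, treated next day for 30 min in Ham's F12 with compounds at 6–8 concentrations from 0.00003 to 10 μM; parental CHO cells also screened. Intracellular cAMP read by HTRF competitive immunoassay (665/620 nm ratio). Activity given as % FRET change from DMSO control.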

| Structure (SMILES) | activation at 10 µM [%] |
| --- | --- |
| CCc1cnc(N2CCC(c3nc(COc4ccc(S(C)(=O)=O)cc4)cs3)CC2)nc1 [Example 51, 5-Ethyl-2-{4-[4-(4-methanesulfonyl-phenoxymethyl)-thiazol-2-yl]-piperidin-1-yl}-pyrimidine] | 57 |
| CC(C)(C)OC(=O)N1CCC(c2nc(COc3ccc(-n4cnnn4)cc3F)cs2)CC1 [Example 19, 4-[4-(2-Fluoro-4-tetrazol-1-yl-phenoxymethyl)-thiazol-2-yl]-piperidine-1-carboxylic acid tert-butyl ester] | 76 |
| CS(=O)(=O)c1ccc(OCc2csc(C3CCN(C(=O)Oc4ccc(F)cc4)CC3)n2)cc1 [Example 27, 4-[4-(4-Methanesulfonyl-phenoxymethyl)-thiazol-2-yl]-piperidine-1-carboxylic acid 4-fluoro-phenyl ester] | 63 |
| CCc1cnc(N2CCCC(c3nc(COc4ccc(-n5cnnn5)cc4)cs3)C2)nc1 (stereo not drawn) [Example 105, 5-Ethyl-2-{3-[4-(4-tetrazol-1-yl-phenoxymethyl)-thiazol-2-yl]-piperidin-1-yl}-pyrimidine] | 52 |
| CC(C)(C)CC(=O)N1CCC(c2nc(COc3ccc(-n4cnnn4)cc3)cs2)CC1 [Example 41, 3,3-Dimethyl-1-{4-[4-(4-tetrazol-1-yl-phenoxymethyl)-thiazol-2-yl]-piperidin-1-yl}-butan-1-one] | 75 |
| CS(=O)(=O)c1ccc(OCc2csc(C3CCN(c4ncccn4)CC3)n2)cc1 [Example 47, 2-{4-[4-(4-Methanesulfonyl-phenoxymethyl)-thiazol-2-yl]-piperidin-1-yl}-pyrimidine] | 51 |
| CC(C)(C)OC(=O)N1CCC(c2nc(C(=O)Nc3ccc(-n4cnnn4)cc3)cs2)CC1 [Example 109, 4-[4-(4-Tetrazol-1-yl-phenylcarbamoyl)-thiazol-2-yl]-piperidine-1-carboxylic acid tert-butyl ester] | 38 |
| CS(=O)(=O)c1ccc(OCc2csc(C3CCN(c4nc5ccccc5o4)CC3)n2)cc1 [Example 74, 2-{4-[4-(4-Methanesulfonyl-phenoxymethyl)-thiazol-2-yl]-piperidin-1-yl}-benzooxazole] | 17 |
| NC(=O)N1CCC(c2nc(COc3ccc(-n4cnnn4)cc3)cs2)CC1 [Example 99, 4-[4-(4-Tetrazol-1-yl-phenoxymethyl)-thiazol-2-yl]-piperidine-1-carboxylic acid amide] | 67 |
| Cc1cnc(N2CCC(c3nc(COc4ccc(-n5cnnn5)cc4)cs3)CC2)nc1Cl [Example 57, 4-Chloro-5-methyl-2-{4-[4-(4-tetrazol-1-yl-phenoxymethyl)-thiazol-2-yl]-piperidin-1-yl}-pyrimidine] | 7 |
| CC(C)(C)OC(=O)N1CCC(c2nc(COc3ccc(S(C)(=O)=O)cc3F)cs2)CC1 [Example 18, 4-[4-(2-Fluoro-4-methanesulfonyl-phenoxymethyl)-thiazol-2-yl]-piperidine-1-carboxylic acid tert-butyl ester] | 72 |
| COC(=O)C(=O)N1CCC(c2nc(COc3ccc(-n4cnnn4)cc3)cs2)CC1 [Example 42, Oxo-{4-[4-(4-tetrazol-1-yl-phenoxymethyl)-thiazol-2-yl]-piperidin-1-yl}-acetic acid methyl ester] | 67 |
| CC(C)COC(=O)N1CCC(c2nc(COc3ccc(-n4cnnn4)cc3)cs2)CC1 [Example 30, 4-[4-(4-Tetrazol-1-yl-phenoxymethyl)-thiazol-2-yl]-piperidine-1-carboxylic acid isobutyl ester] | 73 |
| CCc1cnc(N2CCC(c3nc(COc4ccc(S(C)(=O)=O)cc4)no3)CC2)nc1 [Example 84, 5-Ethyl-2-{4-[3-(4-methanesulfonyl-phenoxymethyl)-[1,2,4]oxadiazol-5-yl]-piperidin-1-yl}-pyrimidine] | 59 |
| CS(=O)(=O)c1ccc(OCc2csc(C3CCN(C(=O)C45CC6CC(CC(C6)C4)C5)CC3)n2)cc1 [Example 39, Adamantan-1-yl-{4-[4-(4-methanesulfonyl-phenoxymethyl)-thiazol-2-yl]-piperidin-1-yl}-methanone] | 9 |

Next, values leading:

| activation at 10 µM [%] | Structure (SMILES) |
| --- | --- |
| 32 | CCCN1CCC(c2nc(COc3ccc(-n4cnnn4)cc3)cs2)CC1 [Example 150, 1-Propyl-4-[4-(4-tetrazol-1-yl-phenoxymethyl)-thiazol-2-yl]-piperidine] |
| 64 | CCc1cnc(N2CCC(c3nc(CNc4ccc(S(C)(=O)=O)cc4F)cs3)CC2)nc1 [Example 141, {2-[1-(5-Ethyl-pyrimidin-2-yl)-piperidin-4-yl]-thiazol-4-ylmethyl}-(2-fluoro-4-methanesulfonyl-phenyl)-amine] |
| 66 | CS(=O)(=O)N1CCC(c2nc(COc3ccc(-n4cnnn4)cc3)cs2)CC1 [Example 154, 1-Methanesulfonyl-4-[4-(4-tetrazol-1-yl-phenoxymethyl)-thiazol-2-yl]-piperidine] |
| 74 | CC(C)OC(=O)N1CCC(c2nc(COc3ccc(S(C)(=O)=O)cc3F)cs2)CC1 [Example 148, 4-[4-(2-Fluoro-4-methanesulfonyl-phenoxymethyl)-thiazol-2-yl]-piperidine-1-carboxylic acid isopropyl ester] |
| 78 | CCc1cnc(N2CC[C@@H](c3nc(COc4ccc(-n5cnnn5)cc4)cs3)[C@@H](C)C2)nc1 (stereo in doubt) [Example 199, 5-Ethyl-2-{3-methyl-4-[4-(4-tetrazol-1-yl-phenoxymethyl)-thiazol-2-yl]-piperidin-1-yl}-pyrimidine] |
| 65 | CCc1cnc(N2CCC(c3nc(COc4ccc(NS(C)(=O)=O)cc4)cs3)CC2)nc1 [Example 117, N-(4-{2-[1-(5-Ethyl-pyrimidin-2-yl)-piperidin-4-yl]-thiazol-4-ylmethoxy}-phenyl)-methanesulfonamide] |
| 78 | CCc1cnc(N2CCC(c3nc(COc4ccc(-n5cnnn5)nc4)cs3)CC2)nc1 [Example 182, 5-Ethyl-2-{4-[4-(6-tetrazol-1-yl-pyridin-3-yloxymethyl)-thiazol-2-yl]-piperidin-1-yl}-pyrimidine] |
| 66 | CC(C)(C)OC(=O)N1CCC(c2nc(COc3ccc(OCc4ccccc4)cc3)cs2)CC1 [Example 135, 4-[4-(4-Benzyloxy-phenoxymethyl)-thiazol-2-yl]-piperidine-1-carboxylic acid tert-butyl ester] |
| 87 | C[C@H]1CN(c2ncc(Cl)cn2)CC[C@H]1c1nc(COc2ccc(-n3cnnn3)cc2F)cs1 (stereo in doubt) [Example 201, 5-Chloro-2-{4-[4-(2-fluoro-4-tetrazol-1-yl-phenoxymethyl)-thiazol-2-yl]-3-methyl-piperidin-1-yl}-pyrimidine] |
| 73 | CCCCCCCOC(=O)N1CCC(c2nc(COc3ccc(-n4cnnn4)cc3)cs2)CC1 [Example 155, 4-[4-(4-Tetrazol-1-yl-phenoxymethyl)-thiazol-2-yl]-piperidine-1-carboxylic acid heptyl ester] |
| 87 | CC(C)(C)OC(=O)N1CCC(c2nc(COc3ccc(C#N)cc3F)cs2)CC1 [Example 126, 4-[4-(4-Cyano-2-fluoro-phenoxymethyl)-thiazol-2-yl]-piperidine-1-carboxylic acid tert-butyl ester] |
| 59 | CCOC(=O)c1cnc(N2CCC(c3nc(COc4ccc(-n5cnnn5)cc4)cs3)CC2)s1 [Example 180, 2-{4-[4-(4-Tetrazol-1-yl-phenoxymethyl)-thiazol-2-yl]-piperidin-1-yl}-thiazole-5-carboxylic acid ethyl ester] |
| 75 | CCc1cnc(N2CCC(c3nc(COc4ccc(-n5cnnn5)cc4F)co3)CC2)nc1 [Example 170, 5-Ethyl-2-{4-[4-(2-fluoro-4-tetrazol-1-yl-phenoxymethyl)-oxazol-2-yl]-piperidin-1-yl}-pyrimidine] |
| 68 | CCc1cnc(N2CCC(c3nc(COc4ccc(-n5cnnn5)cc4C)cs3)CC2)nc1 [Example 164, 5-Ethyl-2-{4-[4-(2-methyl-4-tetrazol-1-yl-phenoxymethyl)-thiazol-2-yl]-piperidin-1-yl}-pyrimidine] |
| 69 | Clc1cnc(N2CCC(c3nc(COc4ccc(-n5cnnn5)nc4)cs3)CC2)nc1 [Example 184, 5-Chloro-2-{4-[4-(6-tetrazol-1-yl-pyridin-3-yloxymethyl)-thiazol-2-yl]-piperidin-1-yl}-pyrimidine] |
| 61 | CC(C)(C)OC(=O)N1CCC(c2nc(COc3ccc(N4CCOCC4)cc3)cs2)CC1 [Example 133, 4-[4-(4-Morpholin-4-yl-phenoxymethyl)-thiazol-2-yl]-piperidine-1-carboxylic acid tert-butyl ester] |
| 74 | CCc1cnc(N2CCC(c3nc(COc4ccc(NC=O)cc4)cs3)CC2)nc1 [Example 116, N-(4-{2-[1-(5-Ethyl-pyrimidin-2-yl)-piperidin-4-yl]-thiazol-4-ylmethoxy}-phenyl)-formamide] |
| 60 | CC(C)(C)OC(=O)N1CCC(c2nc(COc3ccc(-n4cccc4)cc3)cs2)CC1 [Example 113, 4-[4-(4-Pyrrol-1-yl-phenoxymethyl)-thiazol-2-yl]-piperidine-1-carboxylic acid tert-butyl ester] |
